Data set [1] addresses Alpha amylase (Homo sapiens) (UniProt P0DUB6). Description: Binding affinity to alpha-amylase (unknown origin) assessed as gibb's free energy change ar a temperature of 288.15 K by fluorescence quenching analysis.
For data set [2] the target is unchanged. Briefly: Binding affinity to alpha-amylase (unknown origin) assessed as Stem-Volmer quenching constant at a temperature of 278.15 K by fluorescence quenching analysis.
The target is the same in data set [3]. Description: Binding affinity to alpha-amylase (unknown origin) assessed as quenching constant at a temperature of 278.15 K by fluorescence quenching analysis.
The target is the same in data set [4]. Briefly: Binding affinity to alpha-amylase (unknown origin) assessed as decrease in fluorescence intensity of tyrosine residue by Synchronous fluorescence analysis.
The subject of data set [5] is MDA-MB-231. Briefly: Antiproliferative activity against human MDA-MB-231 cells assessed as inhibition of cell growth incubated for 48 hrs by MTT assay. The data set is classed as functional, cell-based. As to conditions: MDA-MB-231, 48 h.
In data set [6] the test system is A549. Briefly: Antiproliferative activity against human A549 cells assessed as inhibition of cell growth incubated for 48 hrs by MTT assay. The data set is classed as functional, cell-based. The conditions noted are these: A549, 48 h. On the technique in general: Tetrazolium assays rely on reduction of a dye to a coloured formazan, in cell work by metabolically active cells.

The target in data set [7] is Alpha amylase (Homo sapiens) (UniProt P0DUB6). Briefly: Binding affinity to alpha-amylase (unknown origin) assessed as increase in intensity of absorption peak at 285 nm by […].
Data set [8] has the same target. Briefly: Binding affinity to alpha-amylase (unknown origin) assessed as increase in intensity of absorption peak at 280 nm by […].
Data set [9] shares this target. Briefly: Binding affinity to alpha-amylase (unknown origin) assessed as increase in absorption intensity by measuring appearance of new peak at 380 nm at 0.001 M by […].
For data set [10] the target is unchanged. Briefly: Binding affinity to alpha-amylase (unknown origin) assessed as assessed as non-uniform change in fluorescence intensity of tryptophan residue by Synchronous fluorescence analysis.
Data set [11] has the same target. Description: Binding affinity to alpha-amylase (unknown origin) assessed as change in entropy by fluorescence quenching analysis.
The target is the same in data set [12]. Description: Binding affinity to alpha-amylase (unknown origin) assessed as quenching constant at a temperature of 288.15 K by fluorescence quenching analysis.
The subject of data set [13] is MCF-10A. Description: Cytotoxicity against human MCF-10A assessed as reduction in cell viability upto 10 uM incubated for 48 hrs by MTT assay. The data set is classed as toxicity, cell-based.
Data set [14] concerns the target Alpha amylase (Homo sapiens) (UniProt P0DUB6). Briefly: Binding affinity to alpha-amylase (unknown origin) assessed as equilibrium binding constant at a temperature of 310.15 K by fluorescence quenching analysis.
Data set [15] shares this target. Briefly: Binding affinity to alpha-amylase (unknown origin) assessed as quenching constant at a temperature of 283.15 K by fluorescence quenching analysis.
Data set [16] has the same target. Briefly: Binding affinity to alpha-amylase (unknown origin) assessed as gibb's free energy change ar a temperature of 310.15 K by fluorescence quenching analysis.
Data set [17] shares this target. Briefly: Binding affinity to alpha-amylase (unknown origin) assessed as quenching constant at a temperature of 310.15 K by fluorescence quenching analysis.
Data set [18] concerns A549. Description: Induction of ROS in human A549 cells at sub IC50 concentration incubated for 24 hrs by H2DCFDA dye based fluorescence assay (reference value: 33.28%). The data set is classed as functional.
Data set [19] deals with T1, Alpha amylase (Homo sapiens, UniProt P0DUB6).
T1 sequence (P0DUB6 whole entry): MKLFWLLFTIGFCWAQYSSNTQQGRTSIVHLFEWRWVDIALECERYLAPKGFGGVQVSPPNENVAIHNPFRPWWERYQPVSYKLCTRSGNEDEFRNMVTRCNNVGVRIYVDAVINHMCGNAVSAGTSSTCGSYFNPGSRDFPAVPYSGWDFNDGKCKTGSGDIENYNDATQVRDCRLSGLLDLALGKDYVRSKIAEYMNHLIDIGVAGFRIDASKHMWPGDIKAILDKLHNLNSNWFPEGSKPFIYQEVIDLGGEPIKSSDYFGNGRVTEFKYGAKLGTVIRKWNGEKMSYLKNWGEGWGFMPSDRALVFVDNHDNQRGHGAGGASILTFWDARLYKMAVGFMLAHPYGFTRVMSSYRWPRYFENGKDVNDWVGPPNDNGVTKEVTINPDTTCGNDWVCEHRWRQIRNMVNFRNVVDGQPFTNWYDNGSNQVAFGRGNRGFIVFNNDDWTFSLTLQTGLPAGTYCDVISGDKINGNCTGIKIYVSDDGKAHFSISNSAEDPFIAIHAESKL
Briefly: Inhibition of alpha-amylase (unknown origin) using starch as substrate preincubated with substrate for 15 mins followed by compound addition and measured after 15 mins by UV-VIS spectrophotometric analysis.

The target in data set [20] is Alpha amylase (Homo sapiens) (UniProt P0DUB6). Briefly: Binding affinity to alpha-amylase (unknown origin) assessed as gibb's free energy change ar a temperature of 278.15 K by fluorescence quenching analysis.
For data set [21] the target is unchanged. Description: Binding affinity to alpha-amylase (unknown origin) assessed as change in enthalpy by fluorescence quenching analysis.
The target is the same in data set [22]. Description: Binding affinity to alpha-amylase (unknown origin) assessed as equilibrium binding constant at a temperature of 278.15 K by fluorescence quenching analysis.
The target is the same in data set [23]. Briefly: Binding affinity to alpha-amylase (unknown origin) assessed as gibb's free energy change ar a temperature of 283.15 K by fluorescence quenching analysis.
Data set [24] concerns HCT-116. Briefly: Antiproliferative activity against human HCT-116 cells assessed as inhibition of cell growth incubated for 48 hrs by MTT assay. The data set is classed as functional, cell-based. The conditions noted are these: HCT-116, 48 h.
The target in data set [25] is Alpha amylase (Homo sapiens) (UniProt P0DUB6). Briefly: Binding affinity to alpha-amylase (unknown origin) assessed as Stem-Volmer quenching constant at a temperature of 283.15 K by fluorescence quenching analysis.
Data set [26] shares this target. Briefly: Binding affinity to alpha-amylase (unknown origin) assessed as equilibrium binding constant at a temperature of 283.15 K by fluorescence quenching analysis.
The target is the same in data set [27]. Briefly: Binding affinity to alpha-amylase (unknown origin) assessed as equilibrium binding constant at a temperature of 288.15 K by fluorescence quenching analysis.
Data set [28] shares this target. Briefly: Binding affinity to alpha-amylase (unknown origin) assessed as Stem-Volmer quenching constant at a temperature of 310.15 K by fluorescence quenching analysis.
Data set [29] has the same target. Briefly: Binding affinity to alpha-amylase (unknown origin) assessed as Stem-Volmer quenching constant at a temperature of 288.15 K by fluorescence quenching analysis.
The target of data set [30] is T2, Pancreatic alpha-amylase (Sus scrofa, UniProt P00690).
T2 sequence (P00690 whole entry): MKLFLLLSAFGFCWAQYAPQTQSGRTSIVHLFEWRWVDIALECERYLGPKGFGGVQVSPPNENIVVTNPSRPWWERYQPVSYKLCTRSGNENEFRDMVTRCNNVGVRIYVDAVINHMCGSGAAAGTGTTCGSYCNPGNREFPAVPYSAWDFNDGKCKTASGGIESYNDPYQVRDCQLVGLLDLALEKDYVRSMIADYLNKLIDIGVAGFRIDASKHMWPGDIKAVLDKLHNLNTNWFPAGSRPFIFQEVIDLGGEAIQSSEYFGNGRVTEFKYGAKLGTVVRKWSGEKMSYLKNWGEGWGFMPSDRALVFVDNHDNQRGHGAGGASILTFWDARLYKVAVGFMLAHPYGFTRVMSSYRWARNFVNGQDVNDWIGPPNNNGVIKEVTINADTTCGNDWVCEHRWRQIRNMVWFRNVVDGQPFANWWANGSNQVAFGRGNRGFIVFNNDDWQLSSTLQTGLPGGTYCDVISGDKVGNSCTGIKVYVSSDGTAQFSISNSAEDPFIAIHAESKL
Description: Inhibition of porcine pancreatic alpha-amylase using starch as substrate incubated for 10 mins by absorbance based assay.

Active and inactive are the calls of the source. The rule behind the calls is not given here.

The IC50 is the midpoint of a concentration-inhibition curve.

Take `O=C(N/N=C/c1ccc(O)cc1)c1csc(Nc2ccc([N+](=O)[O-])cc2)n1`: the deltaG in [1] was -5.69 kcal/mol; in data set [16], -0.507 kcal/mol; in data set [20], -7.71 kcal/mol; in [23] it was -6.7 kcal/mol. In addition, the KSV in [2] is 1.6 10^5L/mol/s; in data set [25] it was 0.93 10^5L/mol/s; in [28] it was 0.188 10^5L/mol/s; in data set [29], 0.24 10^5L/mol/s. Further, the Kq in [3] was 16.8 10^13L/mol/s; in [12], 2.46 10^13L/mol/s; in data set [15], 9.36 10^13L/mol/s; in data set [17], 1.88 10^13L/mol/s. For the same compound, the outcome in [4], in [9] and in data set [10] was Active. Besides, the IC50 in data set [5] stood at 11.4 µM; in data set [6] it was 7.44 µM; in data set [19] it was 0.23 µM; in [24] it was 8.33 µM. Also, the Activity result was “Dose-Dependent Effect” in data set [7], “Dose-Dependent Effect” in data set [8], “Non-Toxic” in data set [13] and 64.21% in data set [18]. For the same compound, in [11], the deltaS was -847 J/mol/K. Further, the Kb is 442000 L/mol in data set [14], 6.32 10^6L/mol in [22], 0.102 10^6L/mol in [26] and 0.00254 10^6L/mol in [27]. In addition, the deltaH in [21] was -6.4 kcal/mol.
On to `COc1ccc(CNC(=O)Nc2sc3c(c2C#N)CCCC3)c(OC)c1`, for which the half-maximal inhibitory concentration (IC50) in data set [30] turned out to be 0.59 µM.

These data come from ChEMBL document CHEMBL5252673, “Development of thiazole-appended novel hydrazones as a new class of α-amylase inhibitors with anticancer assets: an in silico and in vitro approach” (RSC Med Chem, 2023).
